In patent US4080454A, “5-M-Tolyloxyuracil, anti-ulcer agent” (priority 1976, dated 1978):
Entries after “also recorded” stand apart in the source; their conditions may differ. Each block holds one compound with its values, some of them ahead of it.

Columns and labels:
[1] = literature; cited from earlier work
[2] = system: stress induced gastric ulceration; experiment: Cold-restraint stress induced gastric ulceration (antiulcer activity); assay type: in vivo, female rats; details: for % incidence of lesions / Number of lesions: 3 h before stress; for Number of lesions: total in group
Experimental: In order to test the antiulcer activity of 5-m-tolyloxyuracil, stress induced gastric ulceration was produced by immobilizing non-fasted, female rats in a supine position and placing them in a refrigerator at 12° C. for 3 hours. Experimental drugs were administered 3 hours before the initiation of the cold-restraint stress period. At the conclusion of the stress period, the rats were sacrificed, their stomachs inflated with 5 ml of water and removed. The isolated stomachs were placed in a 4 percent aqueous solution of formaldehyde to stiffen the serosal side of the inflated stomach. This procedure facilitates examination of the stomach which is accomplished by slitting the stomach along its greater curvature and noting the number and incidence of gastric lesions. Both control and experimental drug groups consisted of ten rats. A significant reduction in the number and incidence of gastric lesions characterizes antiulcer agents.
The table below compares 5-m-tolyoxyuracil (Compound A) with 5-m-tolyloxy-2-thiouracil (Compound B), Carbenoxolone-Na (Compound C), and 5-(m-methylphenoxy)-2(1H)-pyrimidinone (Compound D).
Percent incidence of lesions is defined as follows. [formula] Number of lesions is the total number of lesions in the experimental group.

[3] = system: experimentally-induced gastric ulceration; details: animals; cited from earlier work
gastric ulcer = details: human gastric ulcer patients; cited from earlier work
[4] = Metabolism of 5-(m-methylphenoxy)-2-(1H)pyrimidinone / 5-m-tolyloxyuracil in rats (C2 radiolabel); assay type: in vivo
[5] = Metabolism of 5-(m-methylphenoxy)-2-(1H)pyrimidinone / 5-m-tolyloxyuracil in monkeys (C2 radiolabel); assay type: in vivo
[6] = Plasma pharmacokinetics in human subjects; assay type: in vivo
Experimental: (§1) In man, using single doses of 400 to 700 mg of 5-(m-methylphenoxy)-2-(1H)pyrimidinone, this drug had declined below the level of detectability by 2 hours post dose.
In our studies in animals and man we have never been able to isolate 5-m-tolyloxyuracil in substantially pure form. Rather we have obtained samples of urine and blood plasma from animals and man consisting of a multitude of natural components, one of which we have identified as 5-m-tolyloxyuracil by comparison of its physical properties with material prepared in substantially pure form by the synthesis described in the present application. Indeed, in samples of plasma from human subjects treated with 5-m-tolyloxy-2(1H)pyrimidinone we have only detected peak levels of 5-m-tolyloxyuracil at the very low concentration of 40 ug/ml. When we say "in substantially pure form", we mean a purity of 95% or greater.

[7] = Metabolic conversion in human subjects; assay type: in vivo
Experimental: as §1

[8] = Search for other metabolic modifications of 5-(m-methylphenoxy)-2-(1H)pyrimidinone; design: species or system rats, monkeys and human subjects; details: in vivo
Experimental: U.S. Pat. No. 3,922,345 discloses the method of treating peptic ulcers which comprises administering to a subject afflicted therewith a daily dose of about 0.60 to 21 mg per kg. of body weight of 5-(m-methylphenoxy)-2-(1H)-pyrimidinone. […] We have been unable to detect metabolic products resulting from (1) phenoxy ring hydroxylation, (2) oxidation of the m-methyl group or (3) ether cleavage.

FUDR phosphorylase = details: J. Med. Chem., 13, 461 (1970); cited from earlier work
thymidine phosphorylase = details: J. Med. Chem., 14, 812 (1971); cited from earlier work
[9] = rats, cold-restraint stress, doses of the table
[10] = endogenously generated 5-m-tolyloxyuracil

SMILES: O=c1[nH]cc(F)c(=O)[nH]1 [5-fluorouracil]
metabolic conversion / degradation [1]: metabolically converted to 5,6-dihydrouracils which undergo ring opening with subsequent loss of the C2 pyrimidine carbon as carbon dioxide; also recorded: undergoes a reduction of the 5,6-double bond to give a 5,6-dihydrouracil which subsequently undergoes ring opening to an N-acetamido βalanine which then loses the C-2 pyrimidine carbon as carbon dioxide

SMILES: CC1(C(=O)O)CCC2(C)CCC3(C)C(=CC(=O)C4C5(C)CCC(OC(=O)CCC(=O)O)C(C)(C)C5CCC43C)C2C1 (stereo not shown) [Compound C, Carbenoxolone-Na]
antiulcer activity (in words) ([2]; 32 mg/kg): less active at 32 mg/kg at which dose the activity is not significant at the P = 0.05 level
% incidence of lesions ([2]; 32 mg/kg ip, control 50): 40%
Number of lesions ([2]; 32 mg/kg ip, control 15): 9
antiulcer activity (in words) ([2]; 60 mg/kg): significantly active (P < 0.05)
% incidence of lesions ([2]; 60 mg/kg ip, control 65): 25%
Number of lesions ([2]; 60 mg/kg ip, control 24): 7
protection from experimentally-induced gastric ulceration [3]: known to protect animals from experimentally-induced gastric ulceration
gastric antiulcer efficacy in clinical trials (gastric ulcer): effective gastric antiulcer agent

SMILES: Cc1cccc(Oc2c[nH]c(=O)[nH]c2=O)c1 [Compound A, 5-m-tolyloxyuracil]
% incidence of lesions ([2]; 32 mg/kg ip, control 100): 56%
Number of lesions ([2]; 32 mg/kg ip, control 58): 19
% incidence of lesions ([2]; 50 mg/kg ip, control 100): 70%
Number of lesions ([2]; 50 mg/kg ip, control 58): 34
antiulcer activity (in words) [2, 9]: effective antiulcer agents at both doses tested since the number and incidence of lesions following drug treatment are significantly lower (P value < 0.05) than in controls
antiulcer activity (in words) ([2]; rats, cold-restraint stress, doses of the table, listed as 5-m-tolyloxyuracil): protects rats against ulceration
metabolic degradation (ring opening, loss of C2 as carbon dioxide) [4, 10]: does not undergo this metabolic degradation; also recorded: no appriciable quantities of radioactive CO2 were observed
metabolic degradation (ring opening, loss of C2 as carbon dioxide) [5, 10]: does not undergo this metabolic degradation; also recorded: no appriciable quantities of radioactive CO2 were observed
plasma half life compared with 5-(m-methylphenoxy)-2-(1H)pyrimidinone ([6]; human subjects): much longer plasma half life; also recorded: much longer plasma half-life
peak plasma concentration compared with parent drug ([6]; human, endogenously generated after single 400 to 700 mg doses of 5-(m-methylphenoxy)-2-(1H)pyrimidinone): peak concentrations greater than that of parent drug

time post dose to decline below the level of detectability ([6]; human, single doses of 400 to 700 mg): ≤ 2 h
other metabolic modifications (phenoxy ring hydroxylation, m-methyl oxidation, ether cleavage) [8]: do not occur to any detectable extent
SMILES: Cc1cccc(Oc2cnc(=O)[nH]c2)c1 [Compound D, 5-(m-methylphenoxy)-2(1H)-pyrimidinone]
% incidence of lesions ([2]; 10 mg/kg ip, control 90): 60%
Number of lesions ([2]; 10 mg/kg ip, control 42): 12
% incidence of lesions ([2]; 32 mg/kg ip, control 90): 40%
Number of lesions ([2]; 32 mg/kg ip, control 34): 13
antiulcer activity (in words) [2, 9]: effective antiulcer agents at both doses tested since the number and incidence of lesions following drug treatment are significantly lower (P value < 0.05) than in controls
metabolic conversion to 5-m-tolyloxyuracil [4]: rapidly and efficiently metabolically converted to 5-m-tolyloxyuracil
metabolic conversion to 5-m-tolyloxyuracil [5]: rapidly and efficiently metabolically converted to 5-m-tolyloxyuracil
metabolic conversion to 5-m-tolyloxyuracil [7]: rapidly and efficiently metabolically converted to 5-m-tolyloxyuracil

SMILES: O=c1[nH]cc(Oc2ccccc2)c(=O)[nH]1 [5-Phenoxyuracil]
inhibition of FUDR phosphorylase (FUDR phosphorylase): poor activity
inhibition of thymidine phosphorylase (thymidine phosphorylase): poor activity

SMILES: Cc1cccc(Oc2c[nH]c(=S)[nH]c2=O)c1 [Compound B, 5-m-tolyloxy-2-thiouracil]
% incidence of lesions ([2]; 10 mg/kg po, control 80): 80%
Number of lesions ([2]; 10 mg/kg po, control 31): 50
antiulcer activity (in words) [2, 9]: inactive
